Assay results reported in patent US10125097B2, “1- [1-(benzoyl)-pyrrolidine-2-carbonyl]-pyrrolidine-2-carbonitrile derivatives” (UNIVERSITAT DE BARCELONA, priority 2012, dated 2018).
Read-outs that look alike come from different tables or passages of the source.

Columns and labels:
[1] = Parallel artificial membrane permeability assay (PAMPA); type: in vitro ADME; conditions: 200 μM initial concentration, pH 7.4, 4 hours, room temperature; for Papp at 4 h, 200 μM: PAMPA, read-out: Effective permeability Pe
Protocol: Parallel artificial membrane permeability assay (PAMPA) described in Kansy M et al., J. Med. Chem. 1998; 41(7):1007-10 was used to determine the capacity of compounds to cross the Blood-Brain Barrier (BBB) by passive diffusion (Di L et al., Eur. J. Med. Chem. 2003; 38(3):223-32). The effective permeability (Pe) of the compounds was measured at an initial concentration of 200 μM. The buffer solution was prepared from a commercial concentrated one following the manufacturer's instructions. pH was adjusted to 7.4 using a 0.5 M NaOH solution. A stock solution of new compound was prepared in DMSO and diluted with buffer solution to a final 200 μM concentration (0.5% DMSO content). The PAMPA sandwich was separated and each donor well was filled with 200 μL of the compound solution. The acceptor plate was placed into the donor plate, ensuring that the underside of the membrane was in contact with buffer. 4 μL of the mixture of phospholipids (20 mg/mL) in dodecane was added to the filter of each well, and 200 μL of buffer solution was added to the each acceptor well. The plate was covered and incubated at room temperature in a saturated humidity atmosphere for 4 hours under orbital agitation at 100 rpm. After 4 hours, the contents of the acceptor and donor compartments were analyzed by HPLC: 150 μL of each well from the donor plate and 150 μL of each well from the acceptor plate were transferred to HPLC vials, injecting each sample into a reverse-phase C18 column (150 mm×4.6 mm×5 μm, 100 Å) (100 μL/injection from the acceptor wells, 10 μL/injection from the donor wells and for t0 references). Transport was also confirmed by MALDI-TOF spectrometry.
The phospholipid mixture used was a porcine polar brain lipid extract, provided by Avanti polar lipids, with the following composition: 12.6% phosphatidylcholine (PC), 33.1% phosphatidylethanolamine (PE), 18.5% phosphatidylserine (PS), 4.1% phosphatidylinositol (PI), 0.8% phosphatidic acid and 30.9% of other compounds.
The effective permeability (Pe) after 4 hours was calculated using equation 2 and the percentage of transport was calculated using equation 3:
[formula] wherein: t is time (h) CA(t) is the compound concentration in the acceptor well at time t and CD(to) is the compound concentration in the donor well at to.

[2] = target: human prolyl oligopeptidase (Homo sapiens (Human), UniProt P48147); experiment: POP inhibition assay (Z-G-P-AMC substrate, fluorimetric); type: biochemical
human prolyl oligopeptidase, sequence (P48147 whole entry): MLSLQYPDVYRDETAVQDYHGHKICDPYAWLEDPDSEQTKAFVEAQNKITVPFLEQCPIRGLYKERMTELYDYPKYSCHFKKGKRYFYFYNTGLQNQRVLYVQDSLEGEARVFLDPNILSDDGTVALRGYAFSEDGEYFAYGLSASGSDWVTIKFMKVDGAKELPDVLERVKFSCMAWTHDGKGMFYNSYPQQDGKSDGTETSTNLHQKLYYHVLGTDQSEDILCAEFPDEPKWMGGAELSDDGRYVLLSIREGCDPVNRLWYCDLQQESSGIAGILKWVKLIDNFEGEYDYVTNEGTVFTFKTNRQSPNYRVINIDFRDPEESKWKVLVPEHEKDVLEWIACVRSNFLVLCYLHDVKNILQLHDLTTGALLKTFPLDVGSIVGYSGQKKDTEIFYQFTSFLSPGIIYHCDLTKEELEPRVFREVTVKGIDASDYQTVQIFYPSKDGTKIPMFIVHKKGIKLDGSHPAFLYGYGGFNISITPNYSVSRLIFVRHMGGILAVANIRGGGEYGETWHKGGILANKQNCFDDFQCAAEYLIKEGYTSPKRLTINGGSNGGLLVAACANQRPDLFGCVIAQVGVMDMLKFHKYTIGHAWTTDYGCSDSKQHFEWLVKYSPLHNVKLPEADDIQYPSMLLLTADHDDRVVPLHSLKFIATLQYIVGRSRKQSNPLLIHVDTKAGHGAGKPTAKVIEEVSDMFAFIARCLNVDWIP
Protocol: Expression and Purification of Prolyl Oligopeptidase (POP)
POP was obtained by expression in E. coli and affinity purification using a His tail fusion according to a literature procedure (Tarragó T et al., ChemBioChem 2006; 7:827-33) summarized below:
hPOP expression: E. coli BL21 competent cells were transformed with pETM10 hPOP. To induce expression, a pre-culture of LB medium (50 mL) containing kanamycin (50 μg/mL) was inoculated with one colony and was grown overnight at 37° C. Next day, two cultures of LB medium (500 mL) were inoculated with the overnight culture (10 mL). The inoculated cultures were grown at 37° C. and 220 rpm until the OD595 was 1.2 (2.5-3 hours). IPTG was then added (final concentration of 1 mM) and induction was performed overnight at 25° C. Cells were harvested (3500 g, 15 min, 4° C.) and the pellet was suspended in suspension buffer (50 mL) [Tris-HCl pH 8 (50 mM), NaCl (300 mM), imidazole (1 mM)] and sonicated with use of four cycles (each consisting of 15 sec of sonication and 15 sec of rest) at an intensity of 50% and 0.5 pulses, the sample being kept on ice. After sonication, the sample was centrifuged (40 000 g, 30 min, 4° C.) and the supernatant was used immediately for POP purification. An ÁKTA explorer FPLC system was used for purification. The supernatant was applied at a flow of 1 mL/min to a HiTrapQuelating column (5 mL) previously equilibrated with 5 column volumes of suspension buffer. The column was washed with suspension buffer until the absorbance at 280 nm returned to basal level. The column was then rinsed with 5 volumes of washing buffer (50 mM Tris-HCl, pH 8, 300 mM NaCl, 30 mM imidazole). The elution was performed with 4 volumes of elution buffer (50 mM Tris-HCl, pH 8, 300 mM NaCl, 500 mM imidazole). Fractions (4 mL) were collected during the entire elution. POP activity was checked in all fractions and positive ones were analyzed by SDS-PAGE and stained with Biosafe Comassie Stain G-250. Positive fractions were collected and desalted by use of a HiPrep 26/10 Desalting column with Tris-HCl (50 mM, pH 8) as buffer. Recombinant hPOP was quantified with the Bio-Rad Protein Assay with BSA as standard. Aliquots of the recombinant enzyme were prepared and immediately frozen with liquid nitrogen and stored at −80° C.
POP activity was determined following the method described by Toide et al (Toide K et al., J. Pharmacol. Exp. Ther. 1995; 274:1370-8), using Z-G-P-AMC (N-benzyloxycarbonyl-Gly-Pro-methylcoumarinyl-7-amide) as POP substrate. The reactions were performed in 96-well microtiter plates, which allowed simultaneous monitoring of multiple reactions. For each reaction, activity buffer (134 μl, 100 mM Na/K phosphate buffer, pH 8.0) was pre-incubated for 15 min at 37° C. with hPOP (ranging from 20 to 60 nM, depending on the activity of the hPOP batch) and the corresponding new compound solution (3 μl). A stock solution of new compound was prepared in DMSO (100 mM), and dilutions were prepared from this stock solution with DMSO. Alternatively, the reactions were performed using another activity buffer (141 μL, 100 mM Tris-acetate, […], 1 mM DTT, pH 7.3), pre-incubating with hPOP (10 nM) and the corresponding new compound solution (3 μl) (Conditions B).
After preincubation, Z-G-P-AMC (10 μl, 3 mM in 40% 1,4-dioxane) was added (3 μl, 1.5 mM in 40% of 1,4-dioxane, in Conditions B), and the reaction was incubated for 1 hour at 37° C. The reaction was stopped by adding sodium acetate (150 μl, 1 M, pH 4) and the formation of AMC was measured fluorimetrically. The excitation and emission wavelengths were 360/40 and 485/20 nm, respectively.
Several concentration points (ranging from 25 μM to 400 μM) were measured for each compound. The inhibitory activity on prolyl oligopeptidase was calculated according to eq 1. For each new compound, the fluorescence in the presence (a) and in the absence of hPOP (b) was measured. […]

[3] = 100 mM Na/K phosphate buffer, pH 8.0, hPOP 20 to 60 nM, Z-G-P-AMC, 1 hour at 37° C., read-out: IC50, inhibition of human prolyl oligopeptidase
[4] = Conditions B: 100 mM Tris-acetate, 10 mM BSA, 1 mM DTT, pH 7.3, hPOP 10 nM, read-out: IC50, inhibition of human prolyl oligopeptidase, measured in conditions B

SMILES	% T (percentage of transport) [1] [%]	Papp at 4 h, 200 μM [1] [nm/s]	IC50 [2, 3] [µM]	IC50 [2, 4] [µM]
COc1cc(C(=O)N2C[C@H](OC)C[C@H]2C(=O)N2CCC[C@H]2C#N)cc(OC)c1OCc1ccccc1 [Example 1, (S)-1-((2S,4R)-1-(4-(benzyloxy)-3,5-dimethoxybenzoyl)-4-methoxypyrrolidine-2-carbonyl)pyrrolidine-2-carbonitrile]	4.3	10	0.0638	–
COc1cc(C(=O)N2C[C@H](F)C[C@H]2C(=O)N2CCC[C@H]2C#N)cc(OC)c1OCc1ccccc1 [Example 2, (S)-1-((2S,4R)-1-(4-(benzyloxy)-3,5-dimethoxybenzoyl)-4-fluoropyrrolidine-2-carbonyl)pyrrolidine-2-carbonitrile]	13.03	72.8	0.0604	–
COc1cc(C(=O)N2C[C@H](c3ccccc3)C[C@H]2C(=O)N2CCC[C@H]2C#N)cc(OC)c1OCc1ccccc1 [Example 3, (S)-1-((2S,4S)-1-(4-(benzyloxy)-3,5-dimethoxybenzoyl)-4-phenylpyrrolidine-2-carbonyl)pyrrolidine-2-carbonitrile]	5.72	28.9	0.339	–
COc1cc(C(=O)N2C[C@@H](SC)C[C@H]2C(=O)N2CCC[C@H]2C#N)cc(OC)c1OCc1ccccc1 [Example 5, (S)-1-((2S,4S)-1-(4-(benzyloxy)-3,5-dimethoxybenzoyl)-4-(methythio)pyrrolidine-2-carbonyl)pyrrolidine-2-carbonitrile]	17.03	99.8	0.176	–
COc1cc(C(=O)N2C[C@@H](C)C[C@H]2C(=O)N2CCC[C@H]2C#N)cc(OC)c1OCc1ccccc1 [Example 6, (S)-1-((2S,4S)-1-(4-(benzyloxy)-3,5-dimethoxybenzoyl)-4-methylpyrrolidine-2-carbonyl)pyrrolidine-2-carbonitrile]	14.76	37.9	–	0.0131
COc1cc(C(=O)N2C[C@@H](C(F)(F)F)C[C@H]2C(=O)N2CCC[C@H]2C#N)cc(OC)c1OCc1ccccc1 [Example 8, (S)-1-((2S,4S)-1-(4-(benzyloxy)-3,5-dimethoxybenzoyl)-4-(trifluoromethyl)-pyrrolidine-2-carbonyl)pyrrolidine-2-carbonitrile]	19.27	50.7	0.176	–
COc1cc(C(=O)N2C[C@H](OC(C)(C)C)C[C@H]2C(=O)N2CCC[C@H]2C#N)cc(OC)c1OCc1ccccc1 [Example 9, (S)-1-((2S,4R)-1-(4-(benzyloxy)-3,5-dimethoxybenzoyl)-4-(tert-butoxy)pyrrolidine-2-carbonyl)pyrrolidine-2-carbonitrile]	–	–	0.668	–
COc1cc(C(=O)N2CC(F)(F)C[C@H]2C(=O)N2CCC[C@H]2C#N)cc(OC)c1OC(C)=O [Example 11, (S)-1-((2S)-1-(4-acetoxy-3,5-dimethoxybenzoyl)-4,4-difluoropyrrolidine-2-carbonyl)pyrrolidine-2-carbonitrile]	–	–	0.352	–
COc1cc(C(=O)N2CC(F)(F)C[C@H]2C(=O)N2CCC[C@H]2C#N)cc(OC)c1OC(=O)c1ccccc1 [Example 12, (S)-1-((2S)-1-(4-benzoyloxy-3,5-dimethoxybenzoyl)-4,4-difluoropyrrolidine-2-carbonyl)pyrrolidine-2-carbonitrile]	8.47	21	0.111	–
COc1cc(C(=O)N2CC(F)(F)C[C@H]2C(=O)N2CCC[C@H]2C#N)cc(OCc2ccccc2)c1OCc1ccccc1 [Example 13, (S)-1-((2S)-1-(3,4-dibenzyloxy-5-methoxybenzoyl)-4,4-difluoropyrrolidine-2-carbonyl)pyrrolidine-2-carbonitrile]	–	–	0.336	–
COc1cc(C(=O)N2CC(F)(F)C[C@H]2C(=O)N2CCC[C@H]2C#N)cc(OC(C)=O)c1OC [Example 15, (S)-1-((2S)-1-(3-acetoxy-4,5-dimethoxybenzoyl)-4,4-difluoropyrrolidine-2-carbonyl)pyrrolidine-2-carbonitrile]	–	–	5.6	–
COc1cc(C(=O)N2CC(F)(F)C[C@H]2C(=O)N2CCC[C@H]2C#N)cc(OC(=O)C(C)(C)C)c1OC [Example 16, (S)-1-((2S)-1-(3-pivaloyloxy-4,5-dimethoxybenzoyl)-4,4-difluoropyrrolidine-2-carbonyl)pyrrolidine-2-carbonitrile]	19.08	50.2	2.14	–
N#C[C@@H]1CCCN1C(=O)[C@@H]1CC(F)(F)CN1C(=O)c1ccc(OCc2ccccc2)cc1 [Example 17, (S)-1-((S)-1-(4-(benzyloxy)benzoyl)-4,4-difluoropyrrolidine-2-carbonyl)pyrrolidine-2-carbonitrile]	14.12	80.4	–	0.287
N#C[C@@H]1CCCN1C(=O)[C@@H]1CC(F)(F)CN1C(=O)c1cccc(OCc2ccccc2)c1 [Example 18, (S)-1-((S)-1-(3-(benzyloxy)benzoyl)-4,4-difluoropyrrolidine-2-carbonyl)pyrrolidine-2-carbonitrile]	11.91	65.1	–	0.487
N#C[C@@H]1CCCN1C(=O)[C@@H]1CC(F)(F)CN1C(=O)c1ccccc1OCc1ccccc1 [Example 19, (S)-1-((S)-1-(2-(benzyloxy)benzoyl)-4,4-difluoropyrrolidine-2-carbonyl)pyrrolidine-2-carbonitrile]	17.55	103	–	0.255
